System: K24384-001-R-PDC complex spheroids, viability
Assay: Anticancer human tumor K24384-001-R-PDC patient-derived pancreatic adenocarcinoma cell line growth inhibition [GQUAD]
Settings: for IC50: curve of first compound; for viability, T/C: stronger effect = lower value
Summary of the method: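 Multi-cell-type spheroids of tumor cells with HUVEC and mesenchymal stem cells, treated with drug combinations. Concentrations descend in half-log steps from near clinical Cmax, or from 10 microM where Cmax is unknown; viability read-out.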

[1] = second compound 0.0316 µM, first compound 0.0316 µM
[2] = second compound 0.0316 µM, first compound 0.1 µM
[3] = second compound 0.0316 µM, first compound 0.316 µM
[4] = second compound 0.0316 µM, first compound 1 µM
[5] = second compound 0.0316 µM, first compound 3.16 µM
[6] = second compound 0.0316 µM, first compound 10 µM
[7] = second compound 0.1 µM, first compound 0.0316 µM
[8] = second compound 0.1 µM, first compound 0.1 µM
[9] = second compound 0.1 µM, first compound 0.316 µM
[10] = second compound 0.1 µM, first compound 1 µM
[11] = second compound 0.1 µM, first compound 3.16 µM
[12] = second compound 0.1 µM, first compound 10 µM
[13] = second compound 0.316 µM, first compound 0.0316 µM
[14] = second compound 0.316 µM, first compound 0.1 µM
[15] = second compound 0.316 µM, first compound 0.316 µM
[16] = second compound 0.316 µM, first compound 1 µM
[17] = second compound 0.316 µM, first compound 3.16 µM
[18] = second compound 0.316 µM, first compound 10 µM
[19] = second compound 1 µM, first compound 0.0316 µM
[20] = second compound 1 µM, first compound 0.1 µM
[21] = second compound 1 µM, first compound 0.316 µM
[22] = second compound 1 µM, first compound 1 µM
[23] = second compound 1 µM, first compound 3.16 µM
[24] = second compound 1 µM, first compound 10 µM
[25] = second compound 3.16 µM, first compound 0.0316 µM
[26] = second compound 3.16 µM, first compound 0.1 µM
[27] = second compound 3.16 µM, first compound 0.316 µM
[28] = second compound 3.16 µM, first compound 1 µM
[29] = second compound 3.16 µM, first compound 3.16 µM
[30] = second compound 3.16 µM, first compound 10 µM
[31] = second compound 10 µM, first compound 0.0316 µM
[32] = second compound 10 µM, first compound 0.1 µM
[33] = second compound 10 µM, first compound 0.316 µM
[34] = second compound 10 µM, first compound 1 µM
[35] = second compound 10 µM, first compound 3.16 µM
[36] = second compound 10 µM, first compound 10 µM
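Further: spheroids exposed to compounds for seven days.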

SMILES: C#Cc1c(F)ccc2cc(O)cc(-c3ncc4c(N5CC6CCC(C5)N6)nc(OCC56CCCN5CC(F)C6)nc4c3F)c12 (centres undefined) + Cc1cnc(CNC(=O)c2c(=O)c3ccc(N4CCCN(C)CC4)nc3n3c2sc2ccccc23)cn1
- IC50 (second compound 0.0316 µM): 0.966 µM
- IC50 (second compound 0.1 µM): 0.494 µM
- IC50 (second compound 0.316 µM): 0.0918 µM
- IC50 (second compound 1 µM): < 0.0316 µM
- IC50 (second compound 3.16 µM): < 0.0316 µM
- IC50 (second compound 10 µM): < 0.0316 µM
- viability, T/C [1]: 72%
- viability, T/C [2]: 83.7%
- viability, T/C [3]: 88.4%
- viability, T/C [4]: 49%
- viability, T/C [5]: 31.2%
- viability, T/C [6]: 23.1%
- viability, T/C [7]: 68.5%
- viability, T/C [8]: 65.3%
- viability, T/C [9]: 54%
- viability, T/C [10]: 41.6%
- viability, T/C [11]: 31.9%
- viability, T/C [12]: 20.4%
- viability, T/C [13]: 52.3%
- viability, T/C [14]: 48%
- viability, T/C [15]: 51.6%
- viability, T/C [16]: 31.7%
- viability, T/C [17]: 32.7%
- viability, T/C [18]: 15.5%
- viability, T/C [19]: 34.7%
- viability, T/C [20]: 42.6%
- viability, T/C [21]: 41.5%
- viability, T/C [22]: 29%
- viability, T/C [23]: 27%
- viability, T/C [24]: 14.1%
- viability, T/C [25]: 29%
- viability, T/C [26]: 36.7%
- viability, T/C [27]: 33.9%
- viability, T/C [28]: 34.9%
- viability, T/C [29]: 18.4%
- viability, T/C [30]: 11.9%
- viability, T/C [31]: 0.13%
- viability, T/C [32]: 0.18%
- viability, T/C [33]: 0.23%
- viability, T/C [34]: 0.2%
- viability, T/C [35]: 0.23%
- viability, T/C [36]: 0.2%

SMILES: CC(C)(O)C1CCC(Nc2ccc3ncc(-c4cccc(C(F)(F)F)c4)n3n2)CC1 (centres undefined) + Cc1cnc(CNC(=O)c2c(=O)c3ccc(N4CCCN(C)CC4)nc3n3c2sc2ccccc23)cn1
- IC50 (second compound 0.0316 µM): 1.72 µM
- IC50 (second compound 0.1 µM): 1.68 µM
- IC50 (second compound 0.316 µM): 0.0316 µM
- IC50 (second compound 1 µM): < 0.0316 µM
- IC50 (second compound 3.16 µM): < 0.0316 µM
- IC50 (second compound 10 µM): < 0.0316 µM
- viability, T/C [1]: 89%
- viability, T/C [2]: 85.6%
- viability, T/C [3]: 90.3%
- viability, T/C [4]: 69.2%
- viability, T/C [5]: 26.6%
- viability, T/C [6]: 30.2%
- viability, T/C [7]: 55.6%
- viability, T/C [8]: 75.8%
- viability, T/C [9]: 72.7%
- viability, T/C [10]: 76.4%
- viability, T/C [11]: 22.4%
- viability, T/C [12]: 28.3%
- viability, T/C [13]: 42.4%
- viability, T/C [14]: 49.8%
- viability, T/C [15]: 46%
- viability, T/C [16]: 60.9%
- viability, T/C [17]: 28.8%
- viability, T/C [18]: 28.1%
- viability, T/C [19]: 37.1%
- viability, T/C [20]: 53%
- viability, T/C [21]: 36.4%
- viability, T/C [22]: 42.4%
- viability, T/C [23]: 22.3%
- viability, T/C [24]: 15.1%
- viability, T/C [25]: 30.4%
- viability, T/C [26]: 40.3%
- viability, T/C [27]: 36.9%
- viability, T/C [28]: 37.7%
- viability, T/C [29]: 0.14%
- viability, T/C [30]: 0.16%
- viability, T/C [31]: 12.8%
- viability, T/C [32]: 12.9%
- viability, T/C [33]: 5.01%
- viability, T/C [34]: 0.25%
- viability, T/C [35]: 0.24%
- viability, T/C [36]: 0.23%
